Data set [1] concerns Staphylococcus aureus (ATCC 29213). The experiment in a line: MIC by microbroth dilution, Staphylococcus aureus ATCC 29213. Conditions: ATCC29213. It counts as cell-based. On the procedure: (§1) Shown below are the microbiological activities of representative compounds of Formula I of the invention. The compounds were tested by the microbroth dilution method (National committee for Clinical Laboratory Standards, 2011, […]-08) and the Minimum Inhibitory Concentration (MIC) was determined.
A general note: Dilution methods test growth across graded concentrations, often in twofold steps.

Data set [2] concerns Methicillin resistant Staphylococcus aureus (ATCC 33591). As to the kind of experiment: MIC by microbroth dilution, MRSA ATCC 33591. It counts as cell-based. The protocol: (§2) Shown below are the microbiological activities of representative compounds of Formula I of the invention. The compounds were tested by the microbroth dilution method (National committee for Clinical Laboratory Standards, 2011, M07-08) and the Minimum Inhibitory Concentration (MIC) was determined.
(§3) Analysis of microbiological activity of compounds shown below are the microbiological activities of representative compounds of Formula II of the invention. The compounds were tested by the microbroth dilution method as per the reference in Example 1.

Data set [3] has as its system Streptococcus pneumoniae (ATCC 6301). As to the kind of experiment: MIC by microbroth dilution, Streptococcus pneumoniae ATCC 6301. It counts as cell-based. Conditions: ATCC6301. The protocol:
as §1

In data set [4] the test system is Enterococcus faecalis (ATCC 29212). The experiment in a line: MIC by microbroth dilution, Enterococcus faecalis ATCC 29212. It counts as cell-based. Conditions: ATCC29212. On the procedure: as §1
Data set [5] concerns Moraxella catarrhalis (ATCC 8176). The experiment in a line: MIC by microbroth dilution, Moraxella catarrhalis ATCC 8176. Type of data set: cell-based. Conditions: ATCC8176. The protocol:
as §1

Another data set deals with E. coli (ATCC 25922). The experiment in a line: MIC by microbroth dilution, E. coli ATCC 25922. Conditions: Escherichia coli. Type of data set: cell-based. On the procedure:
as §2, §3

Data set [6] relates to K. pneumoniae (ATCC 700603). The experiment in a line: MIC by microbroth dilution, K. pneumoniae ATCC 700603. Conditions: Klebsiella pneumoniae, ATCC700603, Formula I compounds. It counts as cell-based. The protocol:
as §2, §3

A further data set concerns the target hERG (Homo sapiens, UniProt Q12809). The experiment in a line: biochemical.
For the next data set, the target named is T1, E. coli Gyrase (Escherichia coli, UniProt P0AES4+P0AES6).
T1 construct: purchased Inspiralis
As to the kind of experiment: in vitro Gyrase supercoiling assay (Inspiralis kit). It counts as biochemical. Conditions: 1 hour at 37° C., read-out: % inhibition of DNA supercoiling activity. On the procedure:
To test for target specificity, the activity of compounds was evaluated in an in vitro Gyrase assay using recombinant Gyrase protein as per the instructions of the assay kit (Inspiralis). The assay measures the ability of E. coli Gyrase to convert relaxed plasmid DNA into the supercoiled form. The enzyme is incubated with the substrate (relaxed DNA) in the presence and absence of compounds for 1 hour at 37° C. and the DNA is run on a gel at low voltage for several hours. The gel is then stained with Ethidium bromide and DNA in the different forms is quantified using DNA imaging and quantification software (Image Lab). The activity of the enzyme is proportional to the amount of supercoiled form detected.

The next data set has as its system E. faecalis ATCC 51299. The experiment in a line: MIC by microbroth dilution, E. faecalis ATCC 51299. It counts as cell-based. Conditions: Enterococcus faecalis, ATCC51299, Formula II compounds, read-out: Minimum Inhibitory Concentration (MIC) E. faecalis ATCC 51299. The protocol:
as §2, §3

The target of data set [7] is T2, ciprofloxacin resistant recombinant Gyrase protein (with mutation S83L) (Escherichia coli, UniProt P0AES4+P0AES6, S83L).
T2 construct: purchased Inspiralis
The experiment in a line: Gyrase supercoiling assay with ciprofloxacin resistant Gyrase (S83L). It counts as biochemical. Conditions: read-out: Target specificity: % inhibition of supercoiling activity. On the procedure: The enzyme is incubated with the substrate (relaxed DNA) in the presence and absence of compounds for 1 hour at 37° C. and the DNA is run on a gel at low voltage for several hours. The amount of supercoiled DNA is quantified using DNA imaging and quantification software (Image Lab). The activity of the enzyme is proportional to the amount of supercoiled form detected.

In the next data set the test system is Acinetobacter BAA747. As to the kind of experiment: MIC by microbroth dilution, Acinetobacter BAA747. Type of data set: cell-based. Conditions: Formula II compounds, read-out: Minimum Inhibitory Concentration (MIC) Acinetobacter BAA747. On the procedure:
as §2, §3

A further data set concerns Pseudomonas ATCC 27853. The experiment in a line: MIC by microbroth dilution, Pseudomonas ATCC 27853. It counts as cell-based. Conditions: ATCC27853, Formula II compounds, read-out: Minimum Inhibitory Concentration (MIC) Pseudomonas ATCC 27853. The protocol: as §2, §3
Data set [8] is described as follows: Single dose pharmacokinetics in male Swiss albino mice. Conditions: mouse, in vivo. Type of data set: in vivo. The protocol: (§4) Compounds were dosed to male Swiss albino mice to determine the pharmacokinetic profiles.
as §4

[9] abbreviates: ATCC33591, Formula I compounds, read-out: MIC Methicillin resistant Staphylococcus aureus (ATCC 33591).
Setting [10] is: ATCC25922, Formula I compounds, read-out: MIC E. coli (ATCC 25922).
The mark [11] stands for this setting: Formula II compounds, read-out: Minimum Inhibitory Concentration (MIC) MRSA ATCC 33591.
Setting [12] is: ATCC25922, Formula II compounds, read-out: Minimum Inhibitory Concentration (MIC) E. coli ATCC 25922.

Values after ≈ are worked out from the molar mass of the structure shown. Like-named read-outs stand apart in the source and are kept apart here. Some results are limits rather than exact numbers.

Procedure for hERG: To test the ability of the VT-03 compounds to bind the hERG channel, membranes expressing the hERG channel were incubated with radiolabeled Astemizole and displacement of the labeled ligand in the presence of compounds was measured.
To test the ability of the VT-03 compounds (of Formula II) to bind the hERG channel, membranes expressing the hERG channel were incubated with radiolabeled Astemizole and displacement of the labeled ligand in the presence of compounds was measured.

As for `COc1ccc2ncc(C#N)c(CCN3CCC(NCc4csc([N+](=O)[O-])c4)CC3)c2c1` [VT-03-00053], the MIC was found to be 0.25 µg/mL (≈ 0.554 µM) in data set [1]; 0.25 µg/mL (≈ 0.554 µM) in data set [2] (setting [9]); 1 µg/mL (≈ 2.21 µM) in data set [3]; 2 µg/mL (≈ 4.43 µM) in [4]; 0.5 µg/mL (≈ 1.11 µM) in data set [5]; 4 µg/mL (≈ 8.86 µM) in the data set with E. coli (ATCC 25922) (setting [10]). Moreover, the MIC in data set [6] is above 32 µg/mL. On hERG, this compound gave an IC50 above 30 µM.

Regarding `COc1ccc2ncc(C#N)c(CCN3CCC(NCc4cc5c(c([N+](=O)[O-])c4)OCO5)CC3)c2c1` [VT-03-00077], the MIC amounted to 0.06 µg/mL (≈ 0.123 µM) in [1]; 0.12 µg/mL (≈ 0.245 µM) in data set [2] (setting [9]); 0.12 µg/mL (≈ 0.245 µM) in [3]; 1 µg/mL (≈ 2.04 µM) in [4]; 0.25 µg/mL (≈ 0.511 µM) in data set [5]; 2 µg/mL (≈ 4.09 µM) with E. coli (ATCC 25922) (setting [10]). Also, the MIC in data set [6] was above 16 µg/mL. Further, the inhibition at 0.1 µM at E. coli Gyrase (0.1 μM compound) turned out to be 38.8%. Further, on E. coli Gyrase (1 μM compound), the inhibition at 1 µM amounted to 88.5%.

As for `COc1ccc2ncc(=O)n(CCN3CCC(NCc4ccc(C)c(F)c4)CC3)c2n1` [VT-03-00101], the MIC is 4 µg/mL (≈ 9.4 µM) in data set [2] (setting [11]), above 16 µg/mL in the data set with E. coli (ATCC 25922) (setting [12]) and 16 µg/mL (≈ 37.6 µM) with E. faecalis ATCC 51299. In addition, the inhibition at 0.1 µM in data set [7] is 95.9%. Besides, in data set [7], the inhibition at 1 µM came to 92.3%.

Regarding `Cc1ccc(CNC2CCN(CCn3c(=O)cnc4ccc(Br)cc43)CC2)cc1F` [VT-03-00102], the MIC was at most 0.0075 µg/mL in data set [2] (setting [11]), 8 µg/mL (≈ 16.9 µM) in the data set with E. coli (ATCC 25922) (setting [12]) and 0.5 µg/mL (≈ 1.06 µM) in the data set on E. faecalis ATCC 51299. Moreover, in data set [7], the inhibition at 0.1 µM is 96.5%. Moreover, in data set [7], the inhibition at 1 µM worked out at 95.3%.

On to `Cc1ccc(CNC2CCN(CCn3c(=O)cnc4ccc(C#N)cc43)CC2)cc1F` [VT-03-00103], for which the MIC in data set [2] (setting [11]) is 0.03 µg/mL (≈ 0.0715 µM); in the data set with E. coli (ATCC 25922) (setting [12]), 0.5 µg/mL (≈ 1.19 µM); in the data set with E. faecalis ATCC 51299, 0.25 µg/mL (≈ 0.596 µM); with Acinetobacter BAA747, 1 µg/mL (≈ 2.38 µM); in the data set on Pseudomonas ATCC 27853 it was 32 µg/mL (≈ 76.3 µM). In data set [7], the inhibition at 0.1 µM stood at 55.8%. Moreover, the inhibition at 1 µM in data set [7] came to 87.5%.

As for `Cc1ccc(CNC2CCN(CCN3C(=O)CNc4ccc(Cl)nc43)CC2)cc1F` [VT-03-00107], the results for the MIC (in data set [2] (setting [11]); in the data set with E. coli (ATCC 25922) (setting [12]); in the data set with E. faecalis ATCC 51299) were 0.06 µg/mL (≈ 0.139 µM), 1 µg/mL (≈ 2.32 µM) and 0.5 µg/mL (≈ 1.16 µM), respectively.

Take `CNC(=O)c1ccc2ncc(=O)n(CCN3CCC(NCc4ccc(C)c([N+](=O)[O-])c4)CC3)c2c1` [VT-03-00108]: the MIC in data set [2] (setting [11]) is 0.25 µg/mL (≈ 0.522 µM); in the data set on E. coli (ATCC 25922) (setting [12]), 8 µg/mL (≈ 16.7 µM); with E. faecalis ATCC 51299 it was 2 µg/mL (≈ 4.18 µM).

In the case of `CNC(=O)c1ccc2ncc(=O)n(CCN3CCC(NCc4ccc(C)c(F)c4)CC3)c2c1` [VT-03-00109], the values for the MIC (in data set [2] (setting [11]); with E. coli (ATCC 25922) (setting [12]); in the data set on E. faecalis ATCC 51299) were 1 µg/mL (≈ 2.21 µM), 16 µg/mL (≈ 35.4 µM) and 2 µg/mL (≈ 4.43 µM), respectively.

`Cc1ccc(CNC2CCN(CCn3c(=O)cnc4ccc(Cl)nc43)CC2)cc1F` [VT-03-00111]: the MIC was determined as 0.125 µg/mL (≈ 0.291 µM) in [2] (setting [11]), 1 µg/mL (≈ 2.33 µM) with E. coli (ATCC 25922) (setting [12]) and 0.5 µg/mL (≈ 1.16 µM) with E. faecalis ATCC 51299. Further, the inhibition at 0.1 µM in [7] was 90.4%. In addition, the inhibition at 1 µM in data set [7] came to 87.6%.

`Cc1ccc(CNC2CCN(CCn3c(=O)cnc4ccc(F)cc43)CC2)cc1[N+](=O)[O-]` [VT-03-00113]: the MIC in data set [2] (setting [11]) was 0.03 µg/mL (≈ 0.0683 µM); in the data set on E. coli (ATCC 25922) (setting [12]) it was 0.125 µg/mL (≈ 0.284 µM); with E. faecalis ATCC 51299, 0.25 µg/mL (≈ 0.569 µM); with Acinetobacter BAA747, 0.25 µg/mL (≈ 0.569 µM); in the data set with Pseudomonas ATCC 27853, 8 µg/mL (≈ 18.2 µM). The AUC(0-t) came to 402 ng·h/mL in data set [8] (iv, 5 mg/kg) and 9.3 ng·h/mL in [8] (oral, 10 mg/kg). Further, the Cmax stood at 672 ng/mL in data set [8] (iv, 5 mg/kg) and 15.6 ng/mL in data set [8] (oral, 10 mg/kg). Further, the time of peak concentration (Tmax) in data set [8] (iv, 5 mg/kg) was determined as 9.6 min; in data set [8] (oral, 10 mg/kg), 30 min. The same compound had a half-life in data set [8] (iv, 5 mg/kg) of 22.2 min. Further, the bioavailability in data set [8] (oral 10 mg/kg vs i.v. 5 mg/kg) came out at 1.16%. In [7], the inhibition at 0.1 µM stood at 90%. Also, in data set [7], the inhibition at 1 µM stood at 94%.

The IC50 is the concentration that inhibits the measured activity by half. Usually inhibition stands for the percentage by which the read-out fell short of the control. The AUC(0-t) is the area under the concentration-time curve up to a stated or last time point. For orientation: Cmax means the highest concentration seen after dosing. Usually Tmax stands for the time at which the peak concentration occurs. A word on the half-life: it is the time in which the quantity being followed falls by half. Low readings indicate fast loss, high ones slow loss. In general, bioavailability refers to the share of a dose that reaches the circulation, judged against a reference dose that is usually intravenous.

For the origin of these results see patent publication US20170197935A1, “INHIBITORS OF DNA GYRASE FOR THE TREATMENT OF BACTERIAL INFECTIONS” (Vitas Pharma Research Private Limited, priority 2012, published 2017).
